Measured values taken from patent publication US20090030086A1, “ANTIMICROBIAL AGENTS” (priority 2005, published 2009).
≈ marks a conversion by molar mass, not a printed value.

Legend:
[1] = test system: P. acnes NCTC 737; experiment: MBC assay; format: cell-based, Propionibacterium acnes
Summary of the method: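 Plates were then checked visually for growth. The MBC is the lowest lethal concentration; cultures were grown on Wilkins-Chalgren Anaerobe Medium at pH 6.0.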

[2] = test system: P. acnes NCTC 737; experiment: Disc diffusion assay (DDA); format: cell-based, Propionibacterium acnes; conditions: Cutibacterium acnes, NCTC737; P. acnes NCTC 737; unsupplemented agar; 200 μg per disc (2,6-dimethoxy-p-benzoquinone 100 μg); read-out: DDA (diameter of zone of inhibition)
[3] = test system: P. acnes PRP-004; experiment: Disc diffusion assay (DDA); format: cell-based, Propionibacterium acnes; conditions: resistance Tet, 200 μg per disc
Experimental: (§1) The Propionibacterium spp organisms were cultured and maintained on Wilkins-Chalgren Anaerobe Medium (agar and broth) at pH 6.0; cultures were incubated anaerobically at 37° C. for 72 hours.
(§2) A sterile paper disc was impregnated with a sample of the test compound and a minimum of 30 minutes allowed for the solvents to evaporate as far as possible. The disc was then placed on an agar plate onto which the test micro-organism had been inoculated. The plate was then incubated under the conditions described above, following which it was examined visually for signs of bacterial growth. If the test compound had antimicrobial activity, a circular zone of no growth would be obtained around the disc. The diameter of this zone of “inhibition” was measured using a ProtoCOL™ automated zone sizer (Synbiosis, Cambridge, UK). In general, a greater diameter and/or area of the zone of inhibition indicates a greater antimicrobial activity in the relevant test compound, although other factors such as test compound mobility through the agar gel may also influence the result.
(§3) The area of the zone of inhibition was calculated from the measured zone diameter (D) using the formula π(D/2)^2.
(§4) For the DDA assays, 200 μg of TBHQ was loaded onto each disc. The solvent used for the TBHQ was ethanol.

[4] = test system: P. acnes PRP-017; experiment: Disc diffusion assay (DDA); format: cell-based, Propionibacterium acnes; conditions: resistance MLS, 200 μg per disc
Experimental: as §1, §2, §3, §4

[5] = test system: P. acnes PRP-026; experiment: Disc diffusion assay (DDA); format: cell-based, Propionibacterium acnes; conditions: resistance MLS, 200 μg per disc
Experimental: as §1, §2, §3, §4

[6] = test system: P. acnes PRP-053; experiment: Disc diffusion assay (DDA); format: cell-based, Propionibacterium acnes; conditions: resistance Tet/MLS, 200 μg per disc
Experimental: as §1, §2, §3, §4

[7] = test system: P. acnes PRP-102; experiment: Disc diffusion assay (DDA); format: cell-based, Propionibacterium acnes; conditions: resistance Tet/MLS, 200 μg per disc
Experimental: as §1, §2, §3, §4

[8] = test system: P. granulosum PPR-006; experiment: Disc diffusion assay (DDA); format: cell-based; conditions: resistance MLS, 200 μg per disc
Experimental: as §1, §2, §3, §4

[9] = test system: P. granulosum PRP-005; experiment: Disc diffusion assay (DDA); format: cell-based; conditions: resistance MLSK, 200 μg per disc
Experimental: as §1, §2, §3, §4

[10] = test system: P. granulosum PRP-043; experiment: Disc diffusion assay (DDA); format: cell-based; conditions: resistance MLS, 200 μg per disc
Experimental: as §1, §2, §3, §4

[11] = test system: P. granulosum PRP-044; experiment: Disc diffusion assay (DDA); format: cell-based; conditions: resistance MLS, 200 μg per disc
Experimental: as §1, §2, §3, §4

[12] = test system: P. granulosum PRP-055; experiment: Disc diffusion assay (DDA); format: cell-based; conditions: resistance None, 200 μg per disc
Experimental: as §1, §2, §3, §4

[13] = test system: H. influenzae ATCC 49247; experiment: MIC assay; format: cell-based; conditions: Haemophilus influenzae, ATCC49247
Text: 5. Haemophilus influenzae ATCC 49247—a member of the genus Haemophilus, these organisms are Gram-negative bacilli which grow under aerobic or anaerobic conditions but require media with special supplements for laboratory culture. Strains of H. influenzae may be capsulated or non-capsulated. The capsulate strains are divided into serotypes, (designated b,c,d,e,f), on the basis of capsular antigens. The serotype H. influenzae type b is an important cause of invasive infections in humans, particularly in young children. The non-capsulate strains are common commensals in the upper respiratory tract, although there are also some healthy carriers of the type b strain. In the context of skin and topical treatments, H. influenzae can be a cause of cellulitis and otitis media (middle ear infection), again particularly in young children. […]
This is a standard international method for quantitatively assessing the antimicrobial activity of a compound in a liquid medium. […]
The wells were inoculated with a liquid suspension of freshly grown micro-organism and incubated under the conditions described above. […] The MIC value was recorded as the lowest concentration of test compound required to inhibit microbial growth, i.e., the lowest concentration for which the liquid in the well remained clear. […]

[14] = test system: H. influenzae ATCC 49247; experiment: MBC assay; format: cell-based, Haemophilus influenzae
Experimental: (§5) The H. influenzae strain was cultured and maintained on Haemophilus Test Medium (HTM) agar/broth (the composition of which is as described in NCCLS M7-A6 Vol. 23 No. 2); cultures were incubated in a CO2 atmosphere at 37° C. for 24 hours.
(§6) This assay, normally carried out after an MIC assay, determines the minimum concentration of a compound that is lethal to the micro-organism being tested.
(§7) These samples were then individually sub-cultured on non-selective agar medium, under the incubation conditions described above. Following incubation they were examined visually for bacterial growth.
(§8) The activity of TBHQ against three other bacterial strains was investigated using MIC, MBC and DDA assays as described above. For the DDA assays, 200 μg of TBHQ was loaded onto each disc, using ethanol as the solvent.

[15] = test system: H. influenzae ATCC 49247; experiment: Disc diffusion assay (DDA); format: cell-based, Haemophilus influenzae; conditions: 200 μg per disc
Experimental: as §5, §2, §3
The activity of TBHQ against three other bacterial strains was investigated using MIC, MBC and DDA assays as described above. […]

[16] = test system: S. pyogenes ATCC 12344; experiment: MBC assay; format: cell-based, Streptococcus pyogenes
Experimental: The S. pyogenes strain was cultured and maintained on Mueller-Hinton agar with 5% v/v defibrinated horse blood, and grown in Mueller-Hinton broth supplemented with 5% lysed horse blood (lysed horse blood was prepared as described in the NCCLS M7-A6 Vol. 23 No. 2); cultures were incubated aerobically at 37° C. for 24 hours.
as §6, §7, §8

`CC(C)(C)c1cc(O)ccc1O` [TBHQ, 2-t-butyl hydroquinone] showed an MIC/MBC ratio ([1]; P. acnes NCTC 737) of 0.5, an MBC ([1]; P. acnes NCTC 737 (Table 6), resistance None) of 15.6 µg/mL (≈ 93.9 µM) and a zone of inhibition at 200 µg/disc [2] of 9.95 mm. It also gave a DDA [3] of 30.32 mm, a DDA [4] of 18.40 mm and a DDA [5] of 8.18 mm. For the same compound, the DDA [6] was 23.49 mm, the DDA [7] was 23.80 mm and the DDA [8] was 20.00 mm. The DDA [9] was 0.00 mm, the DDA [10] was 10.56 mm and the DDA [11] was 10.70 mm. For the same compound, the DDA [12] was 13.07 mm, the MIC [13] was 15.6 µg/mL (≈ 93.9 µM) and the MIC/MBC ratio [14] was 1. The MBC ([14]; Haemophilus influenzae, ATCC49247) was 15.6 µg/mL (≈ 93.9 µM), the DDA [15] was 36.33 mm and the MIC/MBC ratio [16] was 1. The MBC ([16]; Streptococcus pyogenes, ATCC12344) was 62.5 to 125 µg/mL (≈ 376 to 752 µM).
